Experimental data reported in article PMC4583420, “Identification and Validation of a Potent Dual Inhibitor of the P. falciparum M1 and M17 Aminopeptidases Using Virtual Screening” (PLoS ONE, 2015).

Experiments:
PfA-M1 = target: T1, PfA-M1 (Plasmodium falciparum, UniProt O96935); experiment: Dose-response aminopeptidase assay, Ki via Dixon plots, PfA-M1; type: biochemical; details: Dixon plot; substrate 20 and 40 μM
T1 construct: made in house; host or cells: Escherichia coli
T1 sequence (O96935 1-1085): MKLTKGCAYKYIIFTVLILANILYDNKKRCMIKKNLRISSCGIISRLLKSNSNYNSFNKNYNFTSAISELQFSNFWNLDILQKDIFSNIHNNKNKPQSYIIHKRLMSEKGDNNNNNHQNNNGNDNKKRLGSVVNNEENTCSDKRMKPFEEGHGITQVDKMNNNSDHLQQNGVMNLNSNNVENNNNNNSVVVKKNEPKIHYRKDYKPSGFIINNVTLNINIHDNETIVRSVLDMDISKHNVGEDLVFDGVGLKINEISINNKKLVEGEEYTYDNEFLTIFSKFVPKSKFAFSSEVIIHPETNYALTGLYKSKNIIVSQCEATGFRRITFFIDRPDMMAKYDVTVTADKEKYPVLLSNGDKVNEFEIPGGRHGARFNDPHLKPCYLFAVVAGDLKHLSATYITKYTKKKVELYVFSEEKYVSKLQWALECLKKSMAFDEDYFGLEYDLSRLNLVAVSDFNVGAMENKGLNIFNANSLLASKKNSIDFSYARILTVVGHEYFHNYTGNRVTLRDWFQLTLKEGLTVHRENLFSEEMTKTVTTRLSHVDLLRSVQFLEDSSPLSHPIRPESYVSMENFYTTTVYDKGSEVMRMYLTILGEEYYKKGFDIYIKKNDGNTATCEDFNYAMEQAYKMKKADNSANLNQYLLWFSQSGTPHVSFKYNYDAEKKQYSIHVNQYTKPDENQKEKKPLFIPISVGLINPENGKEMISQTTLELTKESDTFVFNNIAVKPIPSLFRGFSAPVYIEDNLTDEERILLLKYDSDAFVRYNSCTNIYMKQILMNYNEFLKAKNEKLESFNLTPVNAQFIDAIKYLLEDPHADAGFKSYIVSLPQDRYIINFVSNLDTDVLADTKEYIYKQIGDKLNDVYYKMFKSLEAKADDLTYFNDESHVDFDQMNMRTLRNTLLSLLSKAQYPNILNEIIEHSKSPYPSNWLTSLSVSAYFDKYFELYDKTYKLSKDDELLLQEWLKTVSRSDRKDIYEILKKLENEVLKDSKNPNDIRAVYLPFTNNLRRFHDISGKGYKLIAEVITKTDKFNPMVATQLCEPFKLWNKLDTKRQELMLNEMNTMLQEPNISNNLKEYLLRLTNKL
Text: (§1) The expression and purification of PfA-M1 and PfA-M17 in Escherichia coli employed a two-step purification process of Ni-NTA-agarose column, followed by size exclusion chromatography on a Superdex 200 16/60 using an AKTAxpress high throughput chromatography system (http://proteinexpress.med.monash.edu.au/index.htm), as previously described. Compounds were purchased from Ambinter (France). Purity (90% or higher) of these compounds was confirmed by vendors. Aminopeptidase activity and K i values for both enzymes were determined as already described.
(§2) The top 12 hits identified in the virtual screen were evaluated for their ability to inhibit both PfA-M1 and PfA-M17 in vitro. We initially tested the total aminopeptidase activity (as reported by the fluorigenic substrate L-leucyl-7-amido-4-methylcoumarin) in the presence of 1 mM compound (Fig 3). In this screen, the “no compound” control was considered 100% activity and bestatin was included as an indicator/control for inhibition. From the results obtained, only compounds 4 (ZINC ID: 25108749) and 12 (ZINC ID: 4090432) were able to inhibit the activity of the enzymes to > 50%. […] The two inhibitory compounds were further analyzed to identify their effects on the individual aminopeptidases. To do this, we performed dose-response assays for each inhibitor with each enzyme, and then determined a K i via Dixon plots (Fig 4). […] Compound 4 was a weaker inhibitor of both enzymes with K i’s in the micromolar range (K i = 30.0 μM for PfA-M1 and 0.7 μM for PfA-M17; Fig 4).
(§3) Fig 4 Dixon plots of 1/V (y axis) versus inhibitor concentration (x axis) for PfA-M1 (top panel) and PfA-M17 (bottom panel). For PfA-M1, substrate concentrations were 20 μM (blue) and 40 μM (red); inhibitor concentration in μM. For PfA-M17, substrate concentrations were 5 μM (magenta) and 10 μM (green); inhibitor concentration in μM or nM as indicated. The point of intersection (-K i) is indicated as a dotted line. (A) PfA-M1 and compound 4. (B) PfA-M1 and compound 12. (C) PfA-M17 and compound 4. (D) PfA-M17 and compound 12

PfA-M17 = target: T2, PfA-M17 (Plasmodium falciparum, UniProt Q8IL11); experiment: Dose-response aminopeptidase assay, Ki via Dixon plots, PfA-M17; type: biochemical; details: Dixon plot; substrate 5 and 10 μM
T2 construct: made in house; host or cells: Escherichia coli
T2 sequence (Q8IL11 84-605 limits assumed): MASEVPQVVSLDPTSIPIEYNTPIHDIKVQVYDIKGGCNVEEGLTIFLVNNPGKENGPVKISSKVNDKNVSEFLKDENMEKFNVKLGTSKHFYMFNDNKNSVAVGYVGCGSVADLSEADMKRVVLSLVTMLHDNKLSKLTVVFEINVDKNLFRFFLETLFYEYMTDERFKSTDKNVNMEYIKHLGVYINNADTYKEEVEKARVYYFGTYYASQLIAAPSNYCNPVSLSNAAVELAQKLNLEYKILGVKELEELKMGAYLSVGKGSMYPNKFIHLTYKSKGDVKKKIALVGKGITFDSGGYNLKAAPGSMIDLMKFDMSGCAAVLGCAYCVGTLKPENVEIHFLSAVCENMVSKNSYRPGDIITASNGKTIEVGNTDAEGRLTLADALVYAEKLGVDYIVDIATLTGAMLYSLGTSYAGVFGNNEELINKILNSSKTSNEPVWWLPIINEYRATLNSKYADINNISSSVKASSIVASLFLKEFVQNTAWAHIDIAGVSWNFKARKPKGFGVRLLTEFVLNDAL
Text: as §1, §2, §3

[1] = test system: PfA-M1 and PfA-M17 (total aminopeptidase activity); experiment: Total aminopeptidase activity in the presence of 1 mM compound (fluorigenic substrate L-leucyl-7-amido-4-methylcoumarin); type: biochemical, Plasmodium falciparum; details: no compound control = 100% activity
Text: as §1
The top 12 hits identified in the virtual screen were evaluated for their ability to inhibit both PfA-M1 and PfA-M17 in vitro. We initially tested the total aminopeptidase activity (as reported by the fluorigenic substrate L-leucyl-7-amido-4-methylcoumarin) in the presence of 1 mM compound (Fig 3). In this screen, the “no compound” control was considered 100% activity and bestatin was included as an indicator/control for inhibition. From the results obtained, only compounds 4 (ZINC ID: 25108749) and 12 (ZINC ID: 4090432) were able to inhibit the activity of the enzymes to > 50%. […] The two inhibitory compounds were further analyzed to identify their effects on the individual aminopeptidases. To do this, we performed dose-response assays for each inhibitor with each enzyme, and then determined a K i via Dixon plots (Fig 4). […]

| SMILES | Ki PfA-M1 (PfA-M1) | Ki PfA-M17 (PfA-M17) | Ki (PfA-M1) | inhibition of total aminopeptidase activity [1] | Ki (PfA-M17) |
| --- | --- | --- | --- | --- | --- |
| CP(=O)(O)CCCCC(N)C(=O)O (stereo not shown) [Compound 1] | n.i. | n.i. |  |  |  |
| NCP(=O)(O)CC(CCCC(=O)O)C(=O)O (stereo not shown) [Compound 3] | n.i. | n.i. |  |  |  |
| CC(CP(=O)(O)C(N)c1ccccc1)C(=O)O (stereo not shown) [Compound 4, 3-{[amino(phenyl)methyl](hydroxy)phosphoryl}-methyl propanoic acid] |  |  | 30000 nM | 95% | 700 nM |
| O=C(O)C(Cc1ccco1)P(=O)(O)CN1CCCCC1 (stereo not shown) [Compound 6] | n.i. | n.i. |  |  |  |
| CCCN(CCC)CP(=O)(O)CCC(=O)O [Compound 7] | n.i. | n.i. |  |  |  |
| O=C(O)CCP(=O)(O)CN1CCCCC1 [Compound 8] | n.i. | n.i. |  |  |  |
| O=C(O)C(CC1CCCO1)P(=O)(O)CN1CCCC1=O (stereo not shown) [Compound 9] | n.i. | n.i. |  |  |  |
| NC(=O)NC(CC(=O)O)C(=O)O (stereo not shown) [Compound 10] | n.i. | n.i. |  |  |  |
| CC(CC(N)C(=O)O)C(=O)O (stereo not shown) [Compound 11] | n.i. | n.i. |  |  |  |
| CC(C)CC(CP(=O)(O)C(N)c1ccccc1)C(=O)O (stereo not shown) [Compound 12] |  |  | 2300 nM | 98% | 17 nM |
